The text below walks through data of patent publication US20160271160A1, “HCV POLYMERASE INHIBITORS” (MEDIVIR AB, priority 2013, published 2016).

Each structure is given as a SMILES string.

The first test has as its system HCV type 1b replicon in Huh-7 luc/neo (Huh-Luc) cells. The test can be described thus: HCV replicon assay (Huh-Luc, luciferase readout). Type of test: cell-based. Particulars: Hepatitis C virus, Huh-7, 72 h. From the text: The compounds of formula I may be examined for activity in the inhibition of HCV RNA replication in a cellular assay aimed at identifying compounds that inhibit a HCV functional cellular replicating cell line, also known as HCV replicons. A suitable cellular assay is based on a bicistronic expression construct, as described by Lohmann et al. (1999), Science vol. 285 pp. 110-113 with modifications described by Krieger et al. (2001), Journal of Virology 75: 4614-4624, in a multi-target screening strategy.
The assay utilizes the stably transfected cell line Huh-7 luc/neo (hereafter referred to as Huh-Luc). This cell line harbours an RNA encoding a bicistronic expression construct comprising the wild type NS3-NS5B regions of HCV type 1b translated from an Internal Ribosome Entry Site (IRES) from encephalomyocarditis virus (EMCV), preceded by a reporter portion (FfL-luciferase), and a selectable marker portion (neo^R, neomycine phosphotransferase). The construct is bordered by 5′ and 3′ NTRs (non-translated regions) from HCV type 1b. Continued culture of the replicon cells in the presence of G418 (neo^R) is dependent on the replication of the HCV RNA. The stably transfected replicon cells that express HCV RNA, which replicates autonomously and to high levels, encoding inter alia luciferase, are used for screening the antiviral compounds.
The replicon cells are plated in 384 well plates in the presence of the test and control compounds which are added in various concentrations. Following an incubation of three days. HCV replication is measured by assaying luciferase activity (using standard luciferase assay substrates and reagents and a Perkin Elmer ViewLux™ ultraHTS microplate imager). Replicon cells in the control cultures have high luciferase expression in the absence of any inhibitor. The inhibitory activity of a compound on luciferase activity is monitored on the Huh-Luc cells, enabling a dose-response curve for each test compound. EC50 values are then calculated, which value represents the amount of the compound required to decrease the level of detected luciferase activity by 50%, or more specifically, the ability of the genetically linked HCV replicon RNA to replicate, […]
Take `CC(C)OC(=O)[C@H](C)NP(=S)(OC[C@H]1O[C@@H](n2ccc(=O)[nH]c2=O)C(Cl)(Cl)[C@@H]1O)Oc1ccccc1` (stereo partly drawn) [Example 13, (2S)-Isopropyl 2-(((((2R,3R,5R)-4,4-Dichloro-5-(2,4-dioxo-3,4-dihydropyrimidin-1(2H)-yl)-3-hydroxytetrahydrofuran-2-yl)methoxy)(phenoxy)phosphorothioyl)amino)propanoate]: the midpoint of the response, the EC50, lay at 5400 nM.

Staying with this test, now noted: Hepatitis C virus, Huh-7, 72 h; HCV type 1b replicon, Huh-Luc cells, three days incubation, luciferase; read-out: EC50.
For `O=c1ccn([C@@H]2O[C@H](CO)[C@@H](O)C2(Cl)Cl)c(=O)[nH]1` [Example 1, 1-((2R,4R,5R)-3,3-dichloro-4-hydroxy-5-(hydroxymethyl)tetrahydrofuran-2-yl)pyrimidine-2,4(1H,3H)-dione], the EC50 is over 50000 nM.

Take `CC[C@@H](C)OC(=O)[C@H](C)NP(=O)(OC[C@H]1O[C@@H](n2ccc(=O)[nH]c2=O)C(Cl)(Cl)[C@@H]1O)Oc1ccccc1` (stereo partly drawn) [Example 4, (2S)—(R)-Sec-butyl 2-(((((2R,3R,5R)-4,4-dichloro-5-(2,4-dioxo-3,4-dihydropyrimidin-1(2H)-yl)-3-hydroxytetrahydrofuran-2-yl)methoxy)(phenoxy)phosphoryl)amino)propanoate]: the EC50 turned out to be 150 nM.

Take `C[C@H](NP(=O)(OC[C@H]1O[C@@H](n2ccc(=O)[nH]c2=O)C(Cl)(Cl)[C@@H]1O)Oc1ccccc1)C(=O)OC1CCCCC1` (stereo partly drawn) [Example 5, (2S)-Cyclohexyl 2-(((((2R,3R,5R)-4,4-dichloro-5-(2,4-dioxo-3,4-dihydropyrimidin-1(2H)-yl)-3-hydroxytetrahydrofuran-2-yl)methoxy)(phenoxy)phosphoryl)amino)propanoate]: the EC50 was determined as 160 nM.

As for `CC[C@H](C)OC(=O)[C@H](C)NP(=O)(OC[C@H]1O[C@@H](n2ccc(=O)[nH]c2=O)C(Cl)(Cl)[C@@H]1O)Oc1ccccc1` (stereo partly drawn) [Example 6, (2S)—(S)-sec-butyl 2-(((((2R,3R,5R)-4,4-dichloro-5-(2,4-dioxo-3,4-dihydropyrimidin-1(2H)-yl)-3-hydroxytetrahydrofuran-2-yl)methoxy)(phenoxy)phosphoryl)amino)propanoate], the concentration giving a half-maximal response (EC50) stood at 100 nM.

Turning to `CC(C)OC(=O)[C@H](C)NP(=O)(OC[C@H]1O[C@@H](n2ccc(=O)[nH]c2=O)C(Cl)(Cl)[C@@H]1O)Oc1cccc(C2CCC2)c1` (stereo partly drawn) [Example 7, (2S)-isopropyl 2-(((3-cyclobutylphenoxy)(((2R,3R,5R)-4,4-dichloro-5-(2,4-dioxo-3,4-dihydropyrimidin-1(2H)-yl)-3-hydroxytetrahydrofuran-2-yl)methoxy)phosphoryl)amino)propanoate], the half-maximal effective concentration (EC50) is 220 nM.

On to `CC(C)OC(=O)[C@H](C)NP(=O)(OC[C@H]1O[C@@H](n2ccc(=O)[nH]c2=O)C(Cl)(Cl)[C@@H]1O)Oc1cccc(C2(C)CC2)c1` (stereo partly drawn) [Example 8, (2S)-Isopropyl 2-(((((2R,3R,5R)-4,4-dichloro-5-(2,4-dioxo-3,4-dihydropyrimidin-1(2H)-yl)-3-hydroxytetrahydrofuran-2-yl)methoxy)(3-(1-methylcyclopropyl)phenoxy)phosphoryl)amino)propanoate], for which the 50% effective concentration (EC50) is 230 nM.

Take `CC(C)OC(=O)[C@H](C)NP(=O)(OC[C@H]1O[C@@H](n2ccc(=O)[nH]c2=O)C(Cl)(Cl)[C@@H]1O)Oc1ccc(C2(C)CC2)cc1` (stereo partly drawn) [Example 9, (2S)-Isopropyl 2-(((((2R,3R,5R)-4,4-dichloro-5-(2,4-dioxo-3,4-dihydropyrimidin-1(2H)-yl)-3-hydroxytetrahydrofuran-2-yl)methoxy)(4-(1-methylcyclopropyl)phenoxy)phosphoryl)-amino)propanoate]: the 50% effective concentration (EC50) amounted to 360 nM.

On to `Nc1ccn([C@@H]2O[C@H](CO)[C@@H](O)C2(Cl)Cl)c(=O)n1` [Example 11, 4-Amino-1-((2R,4R,5R)-3,3-dichloro-4-hydroxy-5-(hydroxymethyl)tetrahydrofuran-2-yl)pyrimidin-2(1H)-one], for which the EC50 is 13000 nM.

Turning to `CC(C)OC(=O)[C@H](C)NP(=O)(OC[C@H]1O[C@@H](n2ccc(N)nc2=O)C(Cl)(Cl)[C@@H]1O)Oc1ccccc1` (stereo partly drawn) [Example 12, (2S)-isopropyl 2-(((((2R,3R,5R)-5-(4-Amino-2-oxopyrimidin-1(2H)-yl)-4,4-dichloro-3-hydroxytetrahydrofuran-2-yl)methoxy)(phenoxy)phosphoryl)amino)propanoate], the EC50 was found to be 170 nM.

As to `CC(C)OC(=O)[C@@H](C)NP(=O)(OC[C@H]1O[C@@H](n2ccc(=O)[nH]c2=O)C(Cl)(Cl)[C@@H]1O)Oc1ccccc1` (stereo partly drawn) [Example 14, (2R)-Isopropyl 2-(((((2R,3R,5R)-4,4-dichloro-5-(2,4-dioxo-3,4-dihydropyrimidin-1(2H)-yl)-3-hydroxytetrahydrofuran-2-yl)methoxy)(phenoxy)phosphoryl)amino)propanoate], the EC50 is 5700 nM.

In the next test the target is HCV NS5B-21 (UniProt Q9WMX2). The test is described as follows: HCV NS5B-21 SPA enzyme assay. Type of test: biochemical. Particulars: triphosphate tested. As to the method: It is this triphosphate which is believed to be the antivirally active species. The enzyme assay described here may be used to confirm that compounds of the invention are antivirally active as the 5-triphosphate metabolite.
Chain of HCV NS5B-21 (Q9WMX2 2420-3010): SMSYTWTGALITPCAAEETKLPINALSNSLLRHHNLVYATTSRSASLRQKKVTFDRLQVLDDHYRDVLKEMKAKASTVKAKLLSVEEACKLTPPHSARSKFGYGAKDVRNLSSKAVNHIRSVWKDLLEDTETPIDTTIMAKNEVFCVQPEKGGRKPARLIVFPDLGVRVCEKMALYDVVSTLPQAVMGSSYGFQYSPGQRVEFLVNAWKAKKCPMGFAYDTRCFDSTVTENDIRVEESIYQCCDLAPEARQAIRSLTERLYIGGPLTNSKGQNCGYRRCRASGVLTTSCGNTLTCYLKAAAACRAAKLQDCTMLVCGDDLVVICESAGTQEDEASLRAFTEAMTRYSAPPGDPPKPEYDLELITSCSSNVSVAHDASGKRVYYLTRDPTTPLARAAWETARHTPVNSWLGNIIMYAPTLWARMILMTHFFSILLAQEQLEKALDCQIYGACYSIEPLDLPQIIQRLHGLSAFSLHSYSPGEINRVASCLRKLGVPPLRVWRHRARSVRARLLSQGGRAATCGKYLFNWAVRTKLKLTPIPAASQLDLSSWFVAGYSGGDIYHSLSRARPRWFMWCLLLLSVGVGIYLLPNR
The enzyme assay measures the inhibitory effect of triphosphate compounds in an HCV NS5B-21 (21-amino acid C-terminally truncated version) SPA assay (scintillation proximity assay). The assay is performed by evaluating the amount of radiolabelled ATP incorporated by HCV NS5B-21 into newly synthesized RNA using an heterogeneous biotinylated RNA template.
To determine IC50 values the compounds are tested at various concentrations in a final volume of 100 μl of reaction mixture. The reaction is stopped by addition of 0.5M EDTA solution. The samples are transferred into flashplates precoated with streptavidin. The incorporated radioactivity is quantified using a scintillation counter (Wallac Microbeta Trilux).
The assay should include enzyme controls (about four, containing 1 μl DMSO instead of inhibitor) and background control containing all ingredients except template.
Compounds are serially diluted in DMSO on a separate dilution plate to 100× the final desired assay concentrations. […]
Incubate the plate over night and read the flash plate in the Microbeta Trilux using the protocol Flash plates H3.
IC50 is determined using Graphpad Prism. […]
`O=c1ccn([C@@H]2O[C@H](COP(=O)(O)OP(=O)(O)OP(=O)(O)O)[C@@H](O)C2(Cl)Cl)c(=O)[nH]1` [Example 3, Lithium((2R,3R,5R)-4,4-dichloro-5-(2,4-dioxo-3,4-dihydropyrimidin-1(2H)-yl)-3-hydroxytetrahydrofuran-2-yl)methyl triphosphate] showed a Ki of 1600 nM.

`Nc1ccn([C@@H]2O[C@H](COP(=O)(O)OP(=O)(O)OP(=O)(O)O)[C@@H](O)C2(Cl)Cl)c(=O)n1` [Example 17, ((2R,3R,5R)-5-(4-Amino-2-oxopyrimidin-1(2H)-yl)-4,4-dichloro-3-hydroxytetrahydrofuran-2-yl)methyl tetrahydrogen triphosphate] gave a Ki of 170 nM.

The test system of a further test is genotype 1b HCV replicon.
Assay: not given
As to conditions: from WO 2012/142085; cited from earlier work.
With `CC(C)OC(=O)[C@H](C)OP(=O)(OC[C@H]1O[C@@H](n2ccc(N)nc2=O)[C@](C)(Cl)[C@@H]1O)Oc1ccccc1` (stereo partly drawn) [compound 8 of Merck WO2012/142085], the 50% effective concentration (EC50) was 34000 nM.

Turning to `CC1(Cl)C(O)C(CO)OC1n1ccc(N)nc1=O` (stereo not drawn) [corresponding nucleoside], the EC50 was 10000 nM.
